Test results as given in patent US20150010644A1, “OXYGENATION OF THE MUCOSAL BARRIER BY ENTERAL ARTIFICIAL BLOOD TO PREVENT HYPOXIC BREAKDOWN OF THE MUCOSAL BARRIER” (THE REGENTS OF THE UNIVERSITY OF CALIFORNIA, priority 2011, published 2015).

Tests used:
mucin2 [1] = test: Mucin2 fluorescent staining of jejunal sections, rat SAO model; format: in vivo; settings: SAO 30 min, lumenal injection 30 min prior
Experimental: (§1) Male Wistar rats (250-300 g, Harlan Sprague Dawley Inc, Indianapolis, Ind.) were randomly assigned to each group (n=4 per group). Rats were kept on solid food restriction for 12 hours prior to surgery with water ad libitum. […] Sham groups were treated the same with the arteries separated but not ligated.
(§2) Perfluorocarbon groups: Perfluorodecalin (PFC) (Sigma-Aldrich, St Louis, Mo.) with oxygen, previously bubbled into the solution for 10 min, was injected into the lumen of the intestine 30 min prior SHAM or SAO surgery (SHAM+PFC+O2, SAO+PFC+O2). PFC without oxygen bubbled into the solution was injected 30 min prior SHAM or SAO surgery (SHAM+PFC, SAO+PFC).
(§3) ATP-MgCl2 groups: ATP-MgCl2 (Sigma-Aldrich), 25 mg/kg BW was injected in the lumen of the intestine 30 min prior to SHAM or SAO surgery (SHAM+ATP, SAO+ATP).
(§4) pH groups: Acidic saline (pH 5.5) injected in the lumen of the intestine 30 min prior SHAM surgery or HEPES buffer (20 mM) injected into the lumen of the intestine 30 min prior to SHAM or SAO surgery.
(§5) Free radicals groups: The hydroxyl radical scavenger, dimethylthiourea (DMTU, Sigma-Aldrich; 2.0 mg/g BW) was injected in the lumen of the intestine 30 min prior to SAO (SAO+DMTU).
(§6) Tissue cryosections: After euthanasia, jejunal sections (˜1 cm in length) were excised without removal of lumenal contents and suspended in Tissue-Tek O.C.T. Compound (Sakura Finetek, Torrance, Calif.), snap frozen in isopentane/liquid nitrogen, and stored at −80° C. for analysis. Cryosections (5 μm thickness) along the longitudinal axis of the villi were used throughout all experiments. Cryosections were fixed in 10% formalin solution and processed in a non-blinded fashion.
(§7) Mucin and lectin staining: The simultaneous visualization of lectins and mucin was carried out using Lectin GS-II from Griffonia simplicifolia, Alexa Fluor® 594 Conjugate (EnzChek®, Invitrogen, Carlsbad, Calif.) and specific antibody for mucin2 with FITC secondary antibody 1:10000 (Santa Cruz Biotechnology) and nuclei counterstaining with DAPI. Sections were observed on an inverted microscope (20× objective) using the appropriate fluorescent filters.

intestinal villi hypoxia = test: Hypoxia staining (pimonidazole, Hypoxyprobe-1) of intestinal villi, rat SAO model; format: in vivo; settings: SAO 30 min; lumenal injection 30 min prior
Experimental: as §1, §2, §3, §4, §5
Hypoxia staining: In separate experiments tissue hypoxia was detected with Hypoxyprobe™-1 Kit (Natural Pharmacia International, Burlington, Mass., USA). This method utilizes a small molecular marker, pimonidazole, which after intravenous injection forms adducts with thiol containing proteins only in oxygen-starved cells. After general anesthesia as described above, pimonidazole-HCl (6 mg/100 g) was injected intravenously 30 min before SAO or SHAM; at 30 min the animal was euthanized and the jejuna section removed, embedded in O.C.T and frozen in liquid nitrogen. Then cryosections were immunostained using a rabbit antibody that binds to protein adducts of pimonidazole in hypoxic cells.

mucin2 [2] = test: Western blot for mucin2 of intestine homogenates, rat SAO model; format: in vivo; settings: SAO 30 min, lumenal injection 30 min prior
Experimental: as §1, §2, §3, §4, §5
(§8) Homogenates of intestine and lumenal contents: Jejunal segments were excised without removal of lumenal contents. For enzyme activity measurements, segments of intestine were homogenized with CelLytic™ (Sigma-Aldrich) without addition of protease inhibitors. For Western blot assays the intestine segments were homogenized as above in the presence of protease inhibitors (5 mM EDTA, 5 mM N-Ethylmaleimide, 25 mM iodoacetamide, 5 mM benzamidine, 300 mM acarbose, 5 mM 6-aminocaproic acid, 1 mM protease inhibitor cocktail, (Sigma-Aldrich). In separate experiments the small intestine of sham animals was excised, and the lumenal contents were flushed with 20 ml saline. Homogenates or lumenal contents were centrifuged (16,000 g for 15 min at 4° C.), the supernatant was collected and protein concentration was assessed with the bicinchoninic acid protein assay (Thermo Scientific).
(§9) Western blot: 20 μg of tissue homogenate were separated by SDS-PAGE. Membranes were incubated with primary antibodies as follows: mucin2, mucin13 and trypsin 1:1000 (Santa Cruz Biotechnology), pancreatic amylase 1:1000 (GeneTex, San Antonio, Tex.), intra- and extra-cellular domains of E-cadherin and TLR4 1:1000 (Abcam), intracellular domain of TLR4 1:1000 (Invitrogen). Secondary antibodies were diluted 1:20000 (Santa Cruz Biotechnology) and detected with Super Signal West Pico (Thermo Scientific). The exposed x-ray films were scanned and label intensity was measured using digital gel analysis (NIH ImageJ software).

mucin13 = test: Western blot for mucin13 of intestine homogenates, rat SAO model; format: in vivo; settings: SAO 30 min, lumenal injection 30 min prior
Experimental: as §1, §2, §3, §4, §5, §8, §9

shock = settings: ATP infusion before and during shock, given prior to hemorrhage; cited from earlier work
[3] = system: ATP concentration in intestine homogenates; test: ATP assay in intestine homogenates, rat SAO model; format: in vivo; settings: lumenal injection 30 min prior
Experimental: as §1, §2, §3, §4, §5
ATP assay: ATP concentrations in intestine homogenates were measured using ATP fluorometirc assay kit (BioVision, Mountain View, Calif.) according to manufacturer's protocol. Briefly jejuna sections were homogenized with perchloric acid (BioVision), centrifuged at 15,000×G for 5 min at 4° C. Samples were mixed with ATP reaction mix, incubated for 30 min protected from light and the fluorescence was measured with 535/587 (Ex/Em).

[4] = system: trypsin activity in the intestinal wall; test: In-situ zymography for trypsin activity in jejunal cryosections, rat splanchnic arterial occlusion (SAO) model; format: in vivo; settings: lumenal injection 30 min prior
Experimental: as §1
Control groups: Animals with saline injection into the lumen of the intestine, 3 ml/100 g Body Weight (BW), 30 min prior to SHAM or SAO surgery.
as §2
ATP-MgCl2 groups: ATP-MgCl2 (Sigma-Aldrich), 25 mg/kg BW was injected in the lumen of the intestine 30 min prior to SHAM or SAO surgery (SHAM+ATP, SAO+ATP). […]
After 30 min SAO or sham surgery, the animals were euthanized (Beuthanasia®; 0.22 ml/kg BW, IV).
as §6
In-situ tissue zymography: In-situ zymography for trypsin activity in cryosections was assessed by measurement of fluorescence resulting from the proteolytic cleavage of the substrate (1 mM, Na-benzoyl-L-arginine-7-amido-methylcoumarin hydrochloride; Sigma-Aldrich) as described elsewhere with propidium iodine counterstaining (Sigma-Aldrich) (9). Slides were observed under an inverted microscope (20× and 60× objectives).

[5] = system: lectin staining (carbohydrate portion of mucin); test: Lectin fluorescent staining (carbohydrate portion of mucin) of jejunal sections, rat SAO model; format: in vivo; settings: SAO 30 min; lumenal injection 30 min prior
Experimental: as §1, §2, §3, §4, §5, §6, §7

[6] = system: MDA equivalents (TBARS) in jejunal homogenates; test: Thiobarbituric Acid Reactive Substances (TBARS) assay, rat SAO model; format: in vivo; settings: SAO 30 min; lumenal injection 30 min prior
Experimental: as §1, §2, §3
pH groups: Acidic saline (pH 5.5) injected in the lumen of the intestine 30 min prior SHAM surgery or HEPES buffer (20 mM) injected into the lumen of the intestine 30 min prior to SHAM or SAO surgery. […]
TBARS assay: Thiobarbituric Acid Reactive Substances (TBARS) was measured using the TBARS assay kit (Zeptometrix, Buffalo, N.Y.) according to manufacturer's protocol. […] Samples were centrifuged at 3000 rpm for 15 min and the supernatant were read at 530/550 (Ex/Em).

**Q.** Which results are given for ATP-MgCl2?
**A.** mucin2 staining levels (mucin2 [1]): significantly lower as compared to the SHAM group with saline but was not statistically different from SHAM-ATP-MgCl2; mucin2 staining levels (mucin2 [1]; listed as ATP): preservation of mucin2 staining; hypoxia staining levels (intestinal villi hypoxia): significantly high levels of hypoxia staining as compared to SHAM groups; mucin2 protein levels (relative density, Western blot) (mucin2 [2]): the same mucin2 and mucin13 protein levels as the sham; mucin2 protein levels (relative density, Western blot) (mucin2 [2]; listed as ATP): preservation of mucin2 staining as well as protein levels of mucin2 and mucin13; mucin13 protein levels / 17 kDa fragment (Western blot) (mucin13): the same mucin2 and mucin13 protein levels as the sham; mucin13 protein levels / 17 kDa fragment (Western blot) (mucin13; listed as ATP): preservation of mucin2 staining as well as protein levels of mucin2 and mucin13; survival of animals (shock): improves the survival of animals; ATP concentration in intestinal tissue homogenates ([3]; SAO 30 min): significantly increased the ATP concentration; ATP concentration in intestinal tissue homogenates ([3]; SHAM surgery): significantly increased the ATP concentration; trypsin activity in the intestinal wall ([4]; SAO 30 min): Low levels of trypsin activity; trypsin activity in the intestinal wall ([4]; SAO 30 min, listed as ATP): less trypsin activity in the wall as compared to the ischemic group with only lumenal saline; trypsin activity in the intestinal wall ([4]; SHAM surgery): minimal trypsin activity; lectin staining levels [5]: significantly lower as compared to the SHAM and SHAM-ATP-MgCl2; levels of MDA equivalents (TBARS) [6]: on average lower levels of MDA equivalents compared to SHAM or SAO, but they were not significant
